Results published in ChEMBL document CHEMBL5107992, “Development of potent non-acylhydrazone inhibitors of intestinal sodium-dependent phosphate transport protein 2b (NaPi2b)” (Bioorg Med Chem, 2022).
≈ marks a conversion by molar mass, not a printed value.

target: T1, Sodium-dependent phosphate transport protein 2B (Homo sapiens, UniProt O95436); test: Inhibition of human NaPi2b transfected in human KJMGER8 cells assessed as reduction in H2[33P]O4 uptake incubated for 60 mins by TopCount scintillation counting method; type: cell-based; settings: not given
T1 sequence (O95436 whole entry): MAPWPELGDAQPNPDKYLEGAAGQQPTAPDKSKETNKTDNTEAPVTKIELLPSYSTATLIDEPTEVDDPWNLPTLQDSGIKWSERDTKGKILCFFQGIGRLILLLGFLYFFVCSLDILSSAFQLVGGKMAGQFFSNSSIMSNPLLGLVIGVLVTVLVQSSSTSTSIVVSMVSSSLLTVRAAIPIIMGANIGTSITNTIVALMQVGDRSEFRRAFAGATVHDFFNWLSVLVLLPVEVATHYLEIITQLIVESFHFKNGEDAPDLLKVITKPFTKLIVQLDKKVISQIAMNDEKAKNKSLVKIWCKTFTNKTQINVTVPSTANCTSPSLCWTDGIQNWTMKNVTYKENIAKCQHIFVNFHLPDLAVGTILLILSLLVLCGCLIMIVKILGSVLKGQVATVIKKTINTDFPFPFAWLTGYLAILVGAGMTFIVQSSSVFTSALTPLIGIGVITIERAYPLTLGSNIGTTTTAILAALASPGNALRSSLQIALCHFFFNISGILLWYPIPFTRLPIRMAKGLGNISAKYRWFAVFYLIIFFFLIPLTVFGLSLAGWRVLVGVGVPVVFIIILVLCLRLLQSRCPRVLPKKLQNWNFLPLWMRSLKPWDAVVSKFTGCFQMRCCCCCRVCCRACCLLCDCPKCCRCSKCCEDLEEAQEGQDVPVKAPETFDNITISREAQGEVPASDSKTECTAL

Row | Compound | IC50
1 | Cc1nnc(-c2ccc(CCc3ccc(NC(=O)c4c(NC(=O)c5cccc(CN(C)CCOCCOCCOCCC(=O)O)c5)sc5c4CCC(C)(C)C5)cc3)cc2)o1 | 14 nM
2 | CC1(C)CCc2c(sc(NC(=O)c3cccc(OCCOCCOCCOCCOCCOCCO)c3)c2C(=O)Nc2ccc(CCc3ccc(C(=O)O)cc3)cc2)C1 | < 100 nM
3 | Cc1nnc(-c2ccc(CCc3ccc(NC(=O)c4c(NC(=O)c5cccc(COCCOCCOCCOCCOCCOCCOCC(=O)O)c5)sc5c4CCC(C)(C)C5)cc3)cc2)o1 | 103 nM
4 | COC(=O)c1ccc(CCc2ccc(NC(=O)c3c(NC(=O)c4cccc(OCCOCCOCCOCCOCCOCCO)c4)sc4c3CCC(C)(C)C4)cc2)cc1 | < 100 nM
5 | Cc1cc(NC(=O)c2c(NC(=O)c3cccc(OCCOCCOCCOCCOCCOCCOCC(=O)O)c3)sc3c2CCC(C)(C)C3)ccc1CCc1ccc(-c2nccs2)cc1 | 288 nM
6 | COC(=O)c1ccc(CCc2ccc(NC(=O)c3c(NC(=O)c4cccc(OCCOCCOCCOCCOCCOCCOCC(=O)O)c4)sc4c3CCC(C)(C)C4)cc2C)cc1 | 71 nM
7 | COC(=O)c1ccc(CCc2ccc(NC(=O)c3c(NC(=O)c4cccc(COCCOCCOCCOCCOCCOCCO)c4)sc4c3CCC(C)(C)C4)cc2C)cc1 | < 100 nM
8 | CC1(C)CCc2c(sc(NC(=O)c3cccc(COCCOCCOCCOCCOCCOCCO)c3)c2C(=O)Nc2ccc(Cc3ccccc3)cc2)C1 | < 100 nM
9 | Cc1cc(NC(=O)c2c(NC(=O)c3cccc(OCCOCCOCCOCCOCCOCCOCC(=O)O)c3)sc3c2CCC(C)(C)C3)ccc1CCc1ccc(-c2ncco2)cc1 | 43 nM
10 | CCc1ccc(NC(=O)c2c(NC(=O)c3cccc(COCCOCCOCCOCCOCCOCCO)c3)sc3c2CCC(C)(C)C3)cc1 | < 100 nM
11 | Cc1nnc(-c2ccc(CCc3ccc(NC(=O)c4c(NC(=O)c5cccc(COCCOCCOCCOCC(=O)O)c5)sc5c4CCC(C)(C)C5)cc3)cc2)o1 | 61 nM
12 | CC1(C)CCc2c(sc3nc(-c4cccc(COCCOCCOCCOCCOCCOCCO)c4)oc(=O)c23)C1 | 2880 nM
13 | COc1ccc(NC(=O)c2c(NC(=O)c3cccc(COCCOCCOCCOCCOCCOCCO)c3)sc3c2CCC(C)(C)C3)cc1 | 1140 nM
14 | Cc1nnc(-c2ccc(CCc3ccc(NC(=O)c4c(NC(=O)c5cccc(CSCCOCCOCCOCCOCCOCCOCCOCCOCCC(=O)O)c5)sc5c4CCC(C)(C)C5)cc3)cc2)o1 | 24 nM
15 | CC1(C)CCc2c(sc(NC(=O)c3cccc(COCCOCCOCCOCCOCCOCCO)c3)c2C(=O)Nc2ccccc2)C1 | 1400 nM

test system: not listed separately; test: Aqueous solubility of compound in PBS buffer at pH 6; type: physicochemical; settings: not given

Row | Compound | solubility
16 | Cc1nnc(-c2ccc(CCc3ccc(NC(=O)c4c(NC(=O)c5cccc(CN(C)CCOCCOCCOCCC(=O)O)c5)sc5c4CCC(C)(C)C5)cc3)cc2)o1 | 52 µM (≈ 43.6 µg/mL)

test system: not listed separately; test: Aqueous solubility of compound in PBS buffer at pH 7.4; type: physicochemical; settings: not given

Row | Compound | solubility
17 | Cc1nnc(-c2ccc(CCc3ccc(NC(=O)c4c(NC(=O)c5cccc(CN(C)CCOCCOCCOCCC(=O)O)c5)sc5c4CCC(C)(C)C5)cc3)cc2)o1 | 96 µM (≈ 80.5 µg/mL)
18 | CC1(C)CCc2c(sc(NC(=O)c3cccc(OCCOCCOCCOCCOCCOCCO)c3)c2C(=O)Nc2ccc(CCc3ccc(C(=O)O)cc3)cc2)C1 | 115 µM (≈ 95.8 µg/mL)
19 | Cc1nnc(-c2ccc(CCc3ccc(NC(=O)c4c(NC(=O)c5cccc(COCCOCCOCCOCCOCCOCCOCC(=O)O)c5)sc5c4CCC(C)(C)C5)cc3)cc2)o1 | 62 µM (≈ 58.5 µg/mL)
20 | COC(=O)c1ccc(CCc2ccc(NC(=O)c3c(NC(=O)c4cccc(OCCOCCOCCOCCOCCOCCO)c4)sc4c3CCC(C)(C)C4)cc2)cc1 | 1.6 µM (≈ 1.36 µg/mL)
21 | Cc1cc(NC(=O)c2c(NC(=O)c3cccc(OCCOCCOCCOCCOCCOCCOCC(=O)O)c3)sc3c2CCC(C)(C)C3)ccc1CCc1ccc(-c2nccs2)cc1 | 87 µM (≈ 82.1 µg/mL)
22 | COC(=O)c1ccc(CCc2ccc(NC(=O)c3c(NC(=O)c4cccc(OCCOCCOCCOCCOCCOCCOCC(=O)O)c4)sc4c3CCC(C)(C)C4)cc2C)cc1 | 116 µM (≈ 107 µg/mL)
23 | COC(=O)c1ccc(CCc2ccc(NC(=O)c3c(NC(=O)c4cccc(COCCOCCOCCOCCOCCOCCO)c4)sc4c3CCC(C)(C)C4)cc2C)cc1 | 0.72 µM (≈ 0.63 µg/mL)
24 | CC1(C)CCc2c(sc(NC(=O)c3cccc(COCCOCCOCCOCCOCCOCCO)c3)c2C(=O)Nc2ccc(Cc3ccccc3)cc2)C1 | 0.48 µM (≈ 0.379 µg/mL)
25 | Cc1cc(NC(=O)c2c(NC(=O)c3cccc(OCCOCCOCCOCCOCCOCCOCC(=O)O)c3)sc3c2CCC(C)(C)C3)ccc1CCc1ccc(-c2ncco2)cc1 | 79 µM (≈ 73.3 µg/mL)
26 | CCc1ccc(NC(=O)c2c(NC(=O)c3cccc(COCCOCCOCCOCCOCCOCCO)c3)sc3c2CCC(C)(C)C3)cc1 | 0.39 µM (≈ 0.284 µg/mL)
27 | Cc1nnc(-c2ccc(CCc3ccc(NC(=O)c4c(NC(=O)c5cccc(COCCOCCOCCOCC(=O)O)c5)sc5c4CCC(C)(C)C5)cc3)cc2)o1 | 156 µM (≈ 127 µg/mL)
28 | CC1(C)CCc2c(sc3nc(-c4cccc(COCCOCCOCCOCCOCCOCCO)c4)oc(=O)c23)C1 | 36 µM (≈ 21.8 µg/mL)
29 | COc1ccc(NC(=O)c2c(NC(=O)c3cccc(COCCOCCOCCOCCOCCOCCO)c3)sc3c2CCC(C)(C)C3)cc1 | 2.3 µM (≈ 1.68 µg/mL)
30 | Cc1nnc(-c2ccc(CCc3ccc(NC(=O)c4c(NC(=O)c5cccc(CSCCOCCOCCOCCOCCOCCOCCOCCOCCC(=O)O)c5)sc5c4CCC(C)(C)C5)cc3)cc2)o1 | 91 µM (≈ 96.6 µg/mL)
31 | CC1(C)CCc2c(sc(NC(=O)c3cccc(COCCOCCOCCOCCOCCOCCO)c3)c2C(=O)Nc2ccccc2)C1 | 81 µM (≈ 56.6 µg/mL)

test system: not listed separately; test: Membrane permeability of compound; type: ADME; settings: not told; read-out: permeability

Row | Compound | Papp
32 | Cc1nnc(-c2ccc(CCc3ccc(NC(=O)c4c(NC(=O)c5cccc(CN(C)CCOCCOCCOCCC(=O)O)c5)sc5c4CCC(C)(C)C5)cc3)cc2)o1 | < 0.09 ×10⁻⁶ cm/s

test system: not listed separately; test: Intestinal availability in Sprague-Dawley rat; type: ADME; settings: not given

Row | Compound | FaFg
33 | COCCN(CCOCCOCCOCCOCCOCCOCc1cccc(C(=O)Nc2sc3c(c2C(=O)N/N=C/c2ccc(Cl)c(C(F)(F)F)c2)CCC(C)(C)C3)c1)CC(=O)O | 0.1%
34 | CCC(CC)N(CCN(C)C(=O)CCC(=O)NCCOCCOCCOCCO)Cc1cccc(C(=O)Nc2sc3c(c2C(=O)c2cnn(-c4ccc(Cl)c(C(F)(F)F)c4)c2)CCC(C)(C)C3)c1 | 0.2%

test system: not listed separately; test: Intestinal availability in rat at 3 mg/kg, po measured after 120 mins by LC/MS-MS analysis; type: ADME, organism-based; settings: in vivo, 2 h

Row | Compound | FaFg
35 | Cc1nnc(-c2ccc(CCc3ccc(NC(=O)c4c(NC(=O)c5cccc(CN(C)CCOCCOCCOCCC(=O)O)c5)sc5c4CCC(C)(C)C5)cc3)cc2)o1 | 5.9%
